The subject of series [1] is human erythrocytes. The class given is cell-based. To be noted: red cells of human, 1 h. The source says: A detrimental property of most AMPs is their toxicity towards host cells due to non-specific interactions with eukaryotic membranes. Thus, the development of antimicrobial oligomers is often aimed at maximizing antimicrobial activity while minimizing eukaryotic cell toxicity. The inventors therefore sought to determine the toxicity of the cyclic peptoids by measuring hemolytic activity. The concentration of antimicrobial compound required to lyse 10% of human erythrocytes (HC10) following incubation for 1 hour at 37° C., was determined.
Hemolysis assays were conducted in 96-well plates using fresh human erythrocytes in PBS (phosphate-buffered saline) solution. Erythrocytes treated with a detergent (1% Triton X-100) solution were used as a positive control for erythrocyte lysis, and vehicle buffer (PBS) was used as a negative control. Hemolytic percentages were defined as [(A−Atestblank)/(Acontrol−Ablank)]×100, where A is the absorbance of the test well and Acontrol the average absorbance of wells with erythrocytes exposed to […], Atestblank (PBS and antimicrobial) and Ablank (PBS only).

Series [2] deals with MRSA USA300 (S. aureus LAC). As for the experimental part:
The cyclic pentamers and hexamers were evaluated for antimicrobial activity against S. aureus LAC, a clinical isolate of MRSA. The antimicrobial assay was conducted using previously published procedures (CLSI Broth Macrodilution Procedures CLSI M07-A7).
(§1) Minimum Inhibitory Concentrations (MIC) were determined against S. aureus LAC in RPMI media supplemented with or without normal human serum (NHS). The 10% hemolytic dose was determined from lysis of human erythrocytes. A selectivity ratio (SR) is defined as HC10/MIC. Cytotoxicity assays were performed using a CellTiter kit with HeLa cells. […] TI: therapeutic index defined as LD50/MIC.
(§2) Antimicrobial susceptibility assays were conducted in 96-well plates using the broth microdilution procedure outlined in the document M07-A7 of the CLSI (Clinical and Laboratory Standards Institute. Methods for Dilution Antimicrobial Susceptibility Tests for Bacteria That Grow Aerobically-Seventh Edition: Approved Standard CLSI document M07-A7. CLSI, Wayne, USA, 2006). Screens against Staphylococcus aureus LAC, MW2, Newman, and RN6734 were conducted in RPMI (Roswell Park Memorial Institute) medium. For assays in serum, normal human pooled serum (NHS) was filtered through a 0.45 μm syringe filter (Pall) prior to dilution with RPMI, such that each well contained 50% (v/v) NHS. Experiments were conducted in three independent replicates of three parallel trials to ensure statistical significance.
(§3) MRSA pulse-field gel electrophoresis types USA300 (strain LAC) (Kennedy, et al, Proc. Natl. Acad. Sci. U.S.A. 2008, 105, 1327-1332) and USA500 (BK2395) (Alonzo, 3rd, et al, Mol. Microbiol. 2012, 83, 423-435) were used in this study. S. aureus were grown in tryptic soy broth (BD Biosciences) as described previously. (Alonzo) Antimicrobial susceptibility assays were conducted in 96-well plates using the broth […] procedure outlined in the document M07-A7 of the CLSI. (Clinical and Laboratory Standards Institute. Methods for Dilution Antimicrobial Susceptibility Tests for Bacteria That Grow Aerobically-Seventh Edition: Approved Standard CLSI document M07-A7. CLSI, Wayne, USA, 2006). The screens against Staphylococcus aureus LAC were conducted in either LB (Luria-Bertani) or RPMI medium. For assays in serum, normal human pooled serum (NHS) was filtered through a 0.45 μm syringe filter (Pall) prior to dilution with RPMI, such that each well contained 50% (v/v) NHS. Experiments were conducted in three independent replicates of three parallel trials to ensure statistical significance.

Series [3] can be described thus: in vitro. To be noted: LC50 (50% lethal concentration), HeLa cells, 1 hr incubation at 37° C. As for the experimental part: As an additional parameter of selectivity, the inventors also evaluated the compounds for toxicity towards nucleated mammalian cells (FIG. 3). The compounds were incubated with HeLa cells for 1 hr at 37° C. and cell viability was determined by a dye-based assay.
HeLa cells (˜[…] cells per well) were seeded in a tissue culture-treated 96-well plate (Corning). The cells were monitored for confluence via light microscopy prior to the addition of compounds to a final volume of 100 μL/well. Following incubation with the compounds (for 1 hour or 24 hours at 37° C.), Cell Titer (Promega) was added to each well and the assay was allowed to develop for 1 hour at 37° C. Absorbance was then read at 490 nm using a Wallac Envision plate reader. The experiments were always conducted in triplicate with water or ethanol as the negative control. Percent cell viability (% CV) was calculated as the ratio of mean absorbance of the test wells and the mean absorbance of the water or ethanol treated wells.
Following seeding in DMEM supplemented with 10% v/v FBS (fetal bovine serum) in tissue-culture plates (Corning), adherent HeLa cells were trypsinized, washed in PBS, and re-suspended in medium at a density of 1×10^6 cells/mL. A 100 μL cell suspension was seeded onto a 96-well plate and cultured for 25 hrs. Subsequently, cells were exposed to the different compounds for 1 and 24 hrs and the cell viability evaluated using CellTiter 96® AQueous Non-Radioactive Cell Proliferation Assay (Promega).

For series [4], the system named is MRSA USA300 (S. aureus LAC). To be noted: for MIC + NHS: MRSA USA300 in 50% (v/v) normal human serum. The method, then: The antimicrobial activities of these four compounds were evaluated in the presence of serum. Such a consideration is critical in evaluating the potential of antimicrobial compounds to be used systemically, as serum components (e.g. proteins) may complicate antimicrobial activity. The assay was conducted similarly as described above, with the media supplemented with 50% normal human serum (NHS).
as §1, §2, §3

Series [5] has as its system Plasmodium falciparum 3D7. To be noted: 3D7, 96 h.
Procedure: In order to assess the ability of the peptoid oligomers described herein to act as antimalarial agents, fluorescence-based in vitro antimalarial assays were performed.
Cultures are maintained by changing the medium daily and keeping parasitemia below 6%. When performed, parasite cultures are synchronized using a MACS cell separation column (Miltenyi Biotec). To determine parasitemia, the number of parasitized erythrocytes from 500 cells in a Giemsa stained blood smear are counted.
Drug Treatment: • 1. Add 100 μL of warm (37° C.) complete media containing drug to each well of a 96 multi-well clear, sterile plate. • 2. […] After 96 hours of growth*, freeze at −80° C. overnight. *Note: Growth can be examined by pipetting 5 from desired wells onto slides and creating blood smears. […] After freezing, thaw at 37° C. for 4 hours. • 6. Transfer 100 μL, pipetting wells up and down to mix, to a black, sterile 96 well plate. • 7. Create working solution of 0.2 μL of SYBR Green per 1 mL of lysis buffer, and add 100 μL of this solution to each well, pipetting up and down to mix/lyse erythrocytes. *Note: mixture should be a translucent red color. • 8. Incubate at room temperature, protected from light, on a shaker for 1 hour.
Measure the fluorescence using excitation and emission wavelengths of 485 and 530 nm, respectively. […]
[6] abbreviates: Table 2, S. aureus LAC, clinical isolate of MRSA.
[7] abbreviates: Table 3, MRSA USA300, without serum.

Molecules are shown by their SMILES. ≈ marks a conversion by molar mass, not a printed value. Like-named read-outs stand apart in the source and are kept apart here. Non-standard residues stand in square brackets, D forms with d. Residues, ends and D or L forms follow the SMILES beside them. Gly(N(CH2)3NH2) = NCCCNCC(=O)O; Nphe = O=C(O)CNCc1ccccc1; Orn = NCCC[C@H](N)C(=O)O; Nlys = NCCCCNCC(=O)O

As to `N=C(N)NCCCCN1CC(=O)N(CC(c2ccccc2)c2ccccc2)CC(=O)N(CCCCNC(=N)N)CC(=O)N(CC(c2ccccc2)c2ccccc2)CC(=O)N(CCCCNC(=N)N)CC(=O)N(CC(c2ccccc2)c2ccccc2)CC(=O)N(CCCCNC(=N)N)CC(=O)N(CC(c2ccccc2)c2ccccc2)CC(=O)N(CCCCNC(=N)N)CC(=O)N(CC(c2ccccc2)c2ccccc2)CC1=O` [Compound 31, C(NgbNdp)5], the “HC10 (concentration required to lyse 10% of human erythrocytes)” value in series [1] was more than 62.5 µg/mL.
`NCCCN1CC(=O)N(c2ccc3c(c2)Cc2ccccc2-3)CC(=O)N(CCCN)CC(=O)N(c2ccc3c(c2)Cc2ccccc2-3)CC(=O)N(CCCN)CC(=O)N(c2ccc3c(c2)Cc2ccccc2-3)CC1=O` [Compound C106, C(NapN2flene)3] returned an MIC in series [2] (USA300) of 3.9 µg/mL (≈ 3.88 µM).
The compound `NCCCN1CC(=O)N(Cc2cc(C(F)(F)F)cc(C(F)(F)F)c2)CC(=O)N(CCCN)CC(=O)N(Cc2cc(C(F)(F)F)cc(C(F)(F)F)c2)CC(=O)N(CCCN)CC(=O)N(Cc2cc(C(F)(F)F)cc(C(F)(F)F)c2)CC1=O` [Compound C125, C(NapNbtfmb)3] returned a CC50 at 1 h in series [3] (human) of 47 µg/mL (≈ 39.4 µM). Also, the “decrease in anti-microbial activity in serum” value in series [4] (50% NHS versus no serum) is “sixteen-fold”. Further, the “MIC + NHS” value in series [4] came out at 62.5 µg/mL. For the same compound, the MIC in series [2] (setting [6]) and in series [2] (setting [7]) was 3.9 µg/mL (≈ 3.27 µM) each time.
`NCCCN1CC(=O)N(Cc2ccc(C(F)(F)F)cc2)CC(=O)N(CCCN)CC(=O)N(Cc2ccc(C(F)(F)F)cc2)CC(=O)N(CCCN)CC(=O)N(Cc2ccc(C(F)(F)F)cc2)CC1=O` [Compound C123, C(NapNptfmpm)3] yielded a minimal inhibitory concentration (MIC) in series [2] (USA300) of 3.9 µg/mL (≈ 3.95 µM).
Take `NCCCN1CC(=O)N(Cc2ccccc2)CC(=O)N(CCCN)CC(=O)N(Cc2ccccc2)CC(=O)N(CCCN)CC(=O)N(Cc2ccccc2)CC1=O` [Compound 23, C(NapNpm)3] (cyclo([Nphe][Gly(N(CH2)3NH2)][Nphe][Gly(N(CH2)3NH2)][Nphe][Gly(N(CH2)3NH2)])): in series [1], the “HC10 (concentration required to lyse 10% of human erythrocytes)” value is more than 250 µg/mL.
`Cc1ccc(CN2CC(=O)N(CCCN)CC(=O)N(Cc3ccc(C)cc3)CC(=O)N(CCCN)CC(=O)N(Cc3ccc(C)cc3)CC(=O)N(CCCN)CC2=O)cc1` [Compound C122, C(NapNpmpm)3] had a minimal inhibitory concentration (MIC) in series [2] (setting [6]) of 15.6 µg/mL (≈ 18.9 µM).
Compound `NCCCN1CC(=O)N(CCC(c2ccccc2)c2ccccc2)CC(=O)N(CCCN)CC(=O)N(CCC(c2ccccc2)c2ccccc2)CC(=O)N(CCCN)CC(=O)N(CCC(c2ccccc2)c2ccccc2)CC1=O` [Compound C103, C(NapNdpp)3] displayed an MIC in series [2] (USA300) of 3.9 µg/mL (≈ 3.56 µM).
As for `NCCCCN1CC(=O)N(Cc2ccccc2)CC(=O)N(CCCCN)CC(=O)N(Cc2ccccc2)CC(=O)N(CCCCN)CC(=O)N(Cc2ccccc2)CC1=O` [Compound 30, C(NabNpm)3] (cyclo([Nlys][Nphe][Nlys][Nphe][Nlys][Nphe])), in series [1], the “HC10 (concentration required to lyse 10% of human erythrocytes)” value is more than 250 µg/mL.
Consider `NCCCN1CC(=O)N(CC(c2ccccc2)c2ccccc2)CC(=O)N(CCCN)CC(=O)N(CC(c2ccccc2)c2ccccc2)CC(=O)N(CCCN)CC(=O)N(CC(c2ccccc2)c2ccccc2)CC1=O` [Compound C3, C(NapNdp)3], for which, in series [3], the 50% cytotoxic concentration (CC50) worked out at 63 µg/mL (≈ 59.8 µM). Also, the “MIC + NHS” value in series [4] stood at 15.6 µg/mL.
Turning to `COc1ccc(CN2CC(=O)N(CCCN)CC(=O)N(Cc3ccc(OC)c(OC)c3)CC(=O)N(CCCN)CC(=O)N(Cc3ccc(OC)c(OC)c3)CC(=O)N(CCCN)CC2=O)cc1OC` [Compound C5-1], the half-maximal inhibitory concentration (IC50) in series [5] came to 26.8 µM.
Regarding `NCCCN1CC(=O)N(Cc2ccc(-c3ccccc3)cc2)CC(=O)N(CCCN)CC(=O)N(Cc2ccc(-c3ccccc3)cc2)CC(=O)N(CCCN)CC(=O)N(Cc2ccc(-c3ccccc3)cc2)CC1=O` [Compound C105, C(NapNpp)3], the MIC in series [2] (USA300) stood at 3.9 µg/mL (≈ 3.85 µM).
On to `CC(C)C[C@@H]1NC(=O)[C@H](CCCN)NC(=O)[C@H](C(C)C)NC(=O)[C@@H]2CCCN2C(=O)[C@@H](Cc2ccccc2)NC(=O)[C@H](CC(C)C)NC(=O)[C@H](CCCN)NC(=O)[C@H](C(C)C)NC(=O)[C@@H]2CCCN2C(=O)[C@@H](Cc2ccccc2)NC1=O` [Gramicidin S, reference compound] (cyclo(V[Orn]L[dF]PV[Orn]L[dF]P)), for which it took 31.3 µg/mL (≈ 27.4 µM) to reach half-maximal cytotoxicity in series [3] (CC50). In addition, the “MIC + NHS” value in series [4] is 31.3 µg/mL. Moreover, the MIC in series [2] (setting [7]) turned out to be 31.3 µg/mL (≈ 27.4 µM).
For the compound `NCCCN1CC(=O)N(C(c2ccccc2)c2ccccc2)CC(=O)N(CCCN)CC(=O)N(C(c2ccccc2)c2ccccc2)CC(=O)N(CCCN)CC(=O)N(C(c2ccccc2)c2ccccc2)CC1=O` [Compound C104, C(NapNdpm)3], the minimum inhibitory concentration (MIC) in series [2] (USA300) came to 3.9 µg/mL (≈ 3.85 µM).

The term MIC denotes the smallest concentration in the dilution series that meets the test's criterion for growth inhibition. The low end stands for a more susceptible organism, the high end for a less susceptible organism. What is called CC50 is the concentration that lowers cell viability or growth by half. A low value points to harm at low concentration. The IC50 is the concentration that gives 50% inhibition.

Values taken from patent publication US9938321B2, “Cyclic peptoid oligomers, pharmaceutical compositions and methods of using the same” (priority 2013, dated 2018).
